Test results from ChEMBL document CHEMBL4411297, “Discovery, synthesis and anti-atherosclerotic activities of a novel selective sphingomyelin synthase 2 inhibitor” (Eur J Med Chem, 2019).
Calls of active or inactive are those of the source. The calls are words filed in the database; no cut-off is given here.

Tested on: not listed separately
Test: Inhibition of SMS (unknown origin)
Design: species or system Homo sapiens

SMILES	IC50
S=C(S)O[C@@H]1C[C@H]2C[C@@H]1[C@H]1CCC[C@@H]21	177000 to 600000 nM

Target: T1, Phosphatidylcholine:ceramide cholinephosphotransferase 2 (Homo sapiens) (UniProt Q8NHU3)
T1 sequence (whole entry): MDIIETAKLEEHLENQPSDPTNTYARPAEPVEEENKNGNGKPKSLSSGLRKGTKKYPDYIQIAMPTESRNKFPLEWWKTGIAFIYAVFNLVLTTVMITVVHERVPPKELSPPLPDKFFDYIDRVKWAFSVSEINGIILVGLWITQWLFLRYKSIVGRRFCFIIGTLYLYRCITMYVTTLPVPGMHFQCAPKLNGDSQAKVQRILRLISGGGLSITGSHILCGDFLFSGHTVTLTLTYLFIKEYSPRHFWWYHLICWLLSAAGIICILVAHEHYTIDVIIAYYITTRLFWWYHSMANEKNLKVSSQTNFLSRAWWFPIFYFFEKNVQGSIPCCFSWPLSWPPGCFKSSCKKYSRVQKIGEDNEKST
Test: Inhibition of SMS2 (unknown origin) over-expressed in H5 insect cell lysate at 100 uM using C6-NBD-Ceramide and DMPC as substrates preincubated for 30 mins followed by substrate addition and measured after 2 hrs by TLC or HPLC method relative to control
Format: subcellular

SMILES	inhibition
N#CC(Nc1ccccc1)c1ccccc1OCc1ccccc1 (configuration not stated)	75%
NC(=O)C(Nc1ccccc1)c1ccccc1OCc1ccccc1 (configuration not stated)	39%
CC(C#N)(Nc1ccccc1)c1ccccc1OCc1ccccc1 (configuration not stated)	58%
c1ccc(COc2ccccc2C(Nc2ccccc2)c2nnn[nH]2)cc1 (configuration not stated)	inactive
O=C(Nc1ccccc1)c1ccccc1OCc1ccccc1	69%
c1ccc(COc2ccccc2CNc2ccccc2)cc1	inactive

Target: T2, Phosphatidylcholine:ceramide cholinephosphotransferase 2 (Homo sapiens, UniProt Q8NHU3)
T2 sequence (Q8NHU3 whole entry): T1 sequence (whole entry)
Test: Inhibition of SMS2 (unknown origin) over-expressed in H5 insect cell lysate using C6-NBD-Ceramide and DMPC as substrates preincubated for 30 mins followed by substrate addition and measured after 2 hrs by TLC or HPLC method
Format: subcellular

SMILES	IC50
Cc1ccc(F)cc1COc1ccccc1C(=O)Nc1cccnc1	740 nM
CCCCCCOc1ccc(Cl)cc1COc1ccccc1C(=O)Nc1cccnc1	520 nM
O=C(Nc1cccnc1)c1ccccc1OCc1ccccc1	3200 nM
CCCCCCCOc1ccc(Cl)cc1COc1ccccc1C(=O)Nc1cccnc1	430 nM
O=C(NC1CCCCC1)c1ccccc1OCc1ccccc1	43400 nM
O=C(Nc1cccnc1)c1ccccc1OCc1cc(F)ccc1Cl	740 nM
Cc1ccc(Cl)cc1COc1ccccc1C(=O)Nc1cccnc1	1100 nM
COc1ccc(OC)c(COc2ccccc2C(=O)Nc2cccnc2)c1	2800 nM
O=C(Nc1cccnc1)c1ccccc1OCc1ccccc1OCCCCCCl	670 nM
Cc1cccc(C)c1COc1ccccc1C(=O)Nc1cccnc1	890 nM
CC(C#N)(Nc1ccccc1)c1ccccc1OCc1ccccc1 (configuration not stated)	34000 nM
O=C(NC1CCCNC1)c1ccccc1OCc1ccccc1Cl (configuration not stated)	> 100000 nM
Cc1c(Cl)cccc1COc1ccccc1C(=O)Nc1cccnc1	3800 nM
O=C(Nc1cccnc1)c1ccccc1OCc1ccccc1C(F)(F)F	2100 nM
O=C(NCc1ccco1)c1ccccc1OCc1ccccc1	49000 nM
O=C(Nc1cccnc1)c1ccccc1OCc1ccccc1OCCCCCCCl	470 nM
O=C(Nc1ccccc1)c1ccccc1OCc1ccccc1	13400 nM
O=C(Nc1cccnc1)c1ccccc1OCc1c(Cl)cccc1Cl	690 nM
N#Cc1cccc(COc2ccccc2C(=O)Nc2cccnc2)c1	60700 nM
O=C(NCc1ccccc1)c1ccccc1OCc1ccccc1	34200 nM
COc1ccc(Cl)cc1COc1ccccc1C(=O)Nc1cccnc1	670 nM
N#Cc1ccccc1COc1ccccc1C(=O)Nc1cccnc1	31800 nM
O=C(Nc1cccnc1)c1ccccc1OCc1ccccc1Cl	1100 nM
O=C(Nc1cccnc1)c1ccccc1OCc1cc(Cl)ccc1Cl	990 nM
O=C(Nc1cccnc1)c1ccccc1OCc1ccccc1OCCCCCl	1300 nM
